In patent publication US6610677B2, “Pyrazole compounds useful as protein kinase inhibitors” (Vertex Pharmaceuticals Incorporated, priority 2000, dated 2003):

What follows are molecules tested against T1, GSK-3β (AA 1-420) (Homo sapiens, UniProt P49841) (assay: Ki determination for the inhibition of GSK-3 (coupled enzyme system)). Conditions: 20 μM ATP, 300 μM peptide, 20 nM GSK-3β, 30° C.
T1 construct: GSK-3β (AA 1-420)
Format: biochemical
Procedure: Compounds were screened for their ability to inhibit GSK-3β (AA 1-420) activity using a standard coupled enzyme system (Fox et al. (1998) Protein Sci. 7, 2249). Reactions were carried out in a solution containing 100 mM HEPES (pH 7.5), 10 mM MgCl2, 25 mM NaCl, 300 μM NADH, 1 mM DTT and 1.5% DMSO. Final substrate concentrations in the assay were 20 μM ATP (Sigma Chemicals, St Louis, Mo.) and 300 μM peptide (HSSPHQS(PO3H2)EDEEE, American Peptide, Sunnyvale, Calif.). Reactions were carried out at 30° C. and 20 nM GSK-3β. Final concentrations of the components of the coupled enzyme system were 2.5 mM phosphoenolpyruvate, 300 μM NADH, 30 μg/ml pyruvate kinase and 10 μg/ml lactate dehydrogenase.
An assay stock buffer solution was prepared containing all of the reagents listed above with the exception of ATP and the test compound of interest. The assay stock buffer solution (175 μl) was incubated in a 96 well plate with 5 μl of the test compound of interest at final concentrations spanning 0.002 μM to 30 μM at 30° C. for 10 min. Typically, a 12 point titration was conducted by preparing serial dilutions (from 10 mM compound stocks) with DMSO of the test compounds in daughter plates. The reaction was initiated by the addition of 20 μl of ATP (final concentration 20 μM). Rates of reaction were obtained using a Molecular Devices Spectramax plate reader (Sunnyvale, Calif.) over 10 min at 30° C. The Ki values were determined from the rate data as a function of inhibitor concentration.

T1 sequence (P49841 whole entry, the tested form may be a part): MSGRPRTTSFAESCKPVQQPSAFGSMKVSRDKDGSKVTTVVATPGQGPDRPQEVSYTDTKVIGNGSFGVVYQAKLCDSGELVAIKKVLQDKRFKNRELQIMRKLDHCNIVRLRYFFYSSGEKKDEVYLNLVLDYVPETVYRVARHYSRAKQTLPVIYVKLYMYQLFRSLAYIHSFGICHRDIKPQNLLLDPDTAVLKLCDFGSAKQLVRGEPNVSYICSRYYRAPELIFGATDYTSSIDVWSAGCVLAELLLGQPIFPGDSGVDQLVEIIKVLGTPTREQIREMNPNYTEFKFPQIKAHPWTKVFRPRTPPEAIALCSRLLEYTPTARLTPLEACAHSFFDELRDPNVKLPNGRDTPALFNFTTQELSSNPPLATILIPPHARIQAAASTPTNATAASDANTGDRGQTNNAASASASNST

`Fc1cc(F)c2n[nH]c(Nc3nc(-c4ccccc4)nc4ccccc34)c2c1` [III-131, (5,7-Difluoro-1H-indazol-3-yl)-(2-phenyl-quinazolin-4-yl)-amine] and `Fc1cc(F)c2[nH]nc(Nc3nc(-c4ccccc4Br)nc4ccccc34)c2c1` [II-85, [2-(2-Bromo-phenyl)-quinazolin-4-yl]-(5,7-difluoro-1H-indazol-3-yl)-amine] cannot be ordered by Ki: < 100 nM for the first, < 100 nM for the second.

`Fc1ccc2[nH]nc(Nc3nc(-c4ccccc4Cl)nc4c3CCCCC4)c2c1` [II-5, [2-(2-Chloro-phenyl)-6,7,8,9-tetrahydro-5H-cycloheptapyrimidin-4-yl]-(5-fluoro-1H-indazol-3-yl)-amine] and `Fc1ccc2[nH]nc(Nc3nc(-c4ccccc4Cl)nc4c3CCC4)c2c1` [II-112, [2-(2-Chloro-phenyl)-6,7-dihydro-5H-cyclopentapyrimidin-4-yl]-(5-fluoro-1H-indazol-3-yl)-amine] cannot be ordered by Ki: < 100 nM for the first, < 100 nM for the second.

Compared with `COC(=O)c1ccc2[nH]nc(Nc3nc(-c4ccccc4C(F)(F)F)nc4ccccc34)c2c1` [II-125, 3-[2-(2-Trifluoromethyl-phenyl)-quinazolin-4-ylamino]-1H-indazole-5-carboxylic acid methyl ester], `FC(F)(F)c1ccccc1-c1nc(Nc2n[nH]c3cccnc23)c2ccccc2n1` [II-98, (1H-Pyrazolo[4,3-b]pyridin-3-yl)-[2-(2-trifluoromethyl-phenyl)-quinazolin-4-yl]-amine] is higher in Ki: < 100 nM for the first, 1000 to 20000 nM for the second.

First: FC(F)(F)c1ccccc1-c1nc(Nc2cc(-c3ccccc3)[nH]n2)c2ccccc2n1 [II-50, (5-Phenyl-2H-pyrazol-3-yl)-[2-(2-trifluoromethylphenyl)-quinazolin-4-yl]-amine]
Second: Cc1cc(Nc2nc(-c3ccccc3-c3ccccc3)nc3ccccc23)n[nH]1 [II-43, (2-Biphenyl-2-yl-quinazolin-4-yl)-(5-methyl-2H-pyrazol-3-yl)-amine]
The Ki of the first is lower: 100 to 1000 nM for the first, 1000 to 20000 nM for the second. The first binds more tightly here.

`Clc1cccc(Cl)c1-c1nc(Nc2n[nH]c3ccccc23)c2ccccc2n1` [II-66, [2-(2,6-Dichloro-phenyl)-guinazolin-4-yl]-(1H-indazol-3-yl)-amine] and `Fc1ccc2[nH]nc(Nc3nc(-c4c(Cl)cccc4Cl)nc4ccccc34)c2c1` [II-62, [2-(2,6-Dichloro-phenyl)-quinazolin-4-yl]-(5-fluoro-1H-indazol-3-yl)-amine] cannot be ordered by Ki: < 100 nM for the first, < 100 nM for the second.

`CC1CN(c2nc(Nc3[nH]nc4ccccc34)c3ccccc3n2)CC(C)O1` (stereo not shown) [III-145, (1H-Indazol-3-yl)-[2-(2,6-dimethyl-morpholin-4-yl)-quinazolin-4-yl]-amine] and `c1ccc2c(Nc3[nH]nc4ccccc34)nc(N3CCCCC3)nc2c1` [III-143, (1H-Indazol-3-yl)-(2-piperidin-1-yl-quinazolin-4-yl)-amine] fall in the same range of Ki: 1000 to 20000 nM for the first, 1000 to 20000 nM for the second.

`CSc1n[nH]c(Nc2nc(-c3ccccc3C(F)(F)F)nc3ccccc23)n1` [IX-156, (5-Methylsulfanyl-2H-[1,2,4]triazol-3-yl)-[2-(2-trifluoromethylphenyl)-quinazolin-4-yl]-amine] and `Cc1cc(C)c2c(Nc3nc(-c4ccccc4C(F)(F)F)nc4ccccc34)n[nH]c2n1` [II-100] fall in the same range of Ki: 1000 to 20000 nM for the first, 1000 to 20000 nM for the second.

First: O=C(NC1CC1)c1cc(Nc2nc(-c3ccccc3)nc3ccccc23)[nH]n1 [III-90, (5-Cyclopropylcarbamoyl-2H-pyrazol-3-yl)-(2-phenyl-quinazolin-4-yl)-amine]
Second: Cc1cc(Nc2nc(-c3ccsc3)nc3ccccc23)[nH]n1 [III-62, (5-Methyl-2H-pyrazol-3-yl)-(2-thiophen-3-yl-quinazolin-4-yl)-amine]
The Ki of the first is higher: 100 to 1000 nM for the first, < 100 nM for the second. The second binds more tightly here.

`Fc1ccc2[nH]nc(Nc3nc(-c4ccccc4C(F)(F)F)nc4c3CNCC4)c2c1` [II-16, (5-Fluoro-1H-indazol-3-yl)-[2-(2-trifluoromethyl-phenyl)-5,6,7,8-tetrahydro-pyrido[4,3-d]pyrimidin-4-yl]-amine] and `Fc1ccc2[nH]nc(Nc3nc(-c4ccccc4C(F)(F)F)nc4c3CCNC4)c2c1` [II-3, (5-Fluoro-1H-indazol-3-yl)-[2-(2-trifluoromethyl-phenyl)-5,6,7,8-tetrahydro-pyrido[3,4-d]pyrimidin-4-yl]-amine] cannot be ordered by Ki: < 100 nM for the first, < 100 nM for the second.

`FC(F)(F)c1ccccc1-c1nc2c(c(Nc3n[nH]c4ccccc34)n1)CCCCC2` [II-13, (1H-Indazol-3-yl)-[2-(2-trifluoromethyl-phenyl)-6,7,8,9-tetrahydro-5H-cycloheptapyrimidin-4-yl]-amine] and `FC(F)(F)c1ccccc1-c1nc2c(c(Nc3n[nH]c4ccccc34)n1)CCC2` [II-113, (1H-Indazol-3-yl)-[2-(2-trifluoromethyl-phenyl)-6,7-dihydro-5H-cyclopentapyrimidin-4-yl]-amine] cannot be ordered by Ki: < 100 nM for the first, < 100 nM for the second.

First: FC(F)(F)c1ccccc1-c1nc(Nc2n[nH]c(-c3ccccc3)c2-c2ccccc2)c2ccccc2n1 [II-51, (4,5-Diphenyl-2H-pyrazol-3-yl)-[2-(2-trifluoromethylphenyl)-quinazolin-4-yl]-amine]
Second: FC(F)(F)c1ccccc1-c1cc(Nc2n[nH]c3ccccc23)c2ccccc2n1 [Compound V-7, (1H-Indazol-3-yl)-[2-(2-trifluoromethyl-phenyl)-quinolin-4-yl]-amine]
The Ki of the first is higher: 1000 to 20000 nM for the first, 100 to 1000 nM for the second.

First: CCOc1ccccc1-c1nc(Nc2cc(C)[nH]n2)c2ccccc2n1 [II-45, [2-(2-Ethoxyphenyl)-quinazolin-4-yl]-(5-Methyl-2H-pyrazol-3-yl)-amine]
Second: Cc1nc(-c2ccccc2Cl)nc(Nc2n[nH]c3ccc(F)cc23)c1C [II-31, [2-(2-Chlorophenyl)-5,6-dimethyl-pyrimidin-4-yl]-(5-fluoro-1H-indazol-3-yl)-amine]
The Ki of the first is higher: 100 to 1000 nM for the first, < 100 nM for the second.

`Fc1ccc2[nH]nc(Nc3nc(-c4ccccc4C(F)(F)F)nc4c3CCCC4)c2c1` [II-8, (5-Fluoro-1H-indazol-3-yl)-[2-(2-trifluoromethyl-phenyl)-5,6,7,8-tetrahydroquinazolin-4-yl]-amine] and `Fc1ccc2[nH]nc(Nc3nc(-c4ccccc4C(F)(F)F)nc4c3CCCCCC4)c2c1` [II-111, (5-Fluoro-1H-indazol-3-yl)-[2-(2-trifluoromethyl-phenyl)-5,6,7,8,9,10-hexahydro-cyclooctapyrimidin-4-yl]-amine] cannot be ordered by Ki: < 100 nM for the first, < 100 nM for the second.

`Cc1nc(-c2ccccc2C(F)(F)F)nc(Nc2n[nH]c3c(F)cccc23)c1C` [II-27, [5,6-Dimethyl-2-(2-trifluoromethyl-phenyl)-pyrimidin-4-yl]-(7-fluoro-1H-indazol-3-yl)-amine] and `Fc1cc(F)c2[nH]nc(Nc3nc(-c4ccccc4C(F)(F)F)nc4ncccc34)c2c1` [II-109, (5,7-Difluoro-1H-indazol-3-yl)-[2-(2-trifluoromethyl-phenyl)-pyrido[2,3-d]pyrimidin-4-yl]-amine] cannot be ordered by Ki: < 100 nM for the first, < 100 nM for the second.

`Fc1ccc2[nH]nc(Nc3nc(-c4ccccc4C(F)(F)F)nc4c3CN(Cc3ccccc3)CC4)c2c1` [II-12, (6-Benzyl-2-(2-trifluoromethyl-phenyl)-5,6,7,8-tetrahydro-pyrido[4,3-d]pyrimidin-4-yl)-(5-fluoro-1H-indazol-3-yl)-amine] and `FC(F)(F)c1ccccc1-c1nc(Nc2n[nH]c3ccccc23)c2cccnc2n1` [II-108, (1H-Indazol-3-yl)-[2-(2-trifluoromethyl-phenyl)-pyrido[2,3-d]pyrimidin-4-yl]-amine] cannot be ordered by Ki: < 100 nM for the first, < 100 nM for the second.

`O=[N+]([O-])c1ccc(-c2nc(Nc3n[nH]c4c(F)cc(F)cc34)c3ccccc3n2)c(Cl)c1` [II-95, [2-(2-Chloro-4-nitro-phenyl)-quinazolin-4-yl]-(5,7-difluoro-1H-indazol-3-yl)-amine] and `Fc1cc(F)c2[nH]nc(Nc3nc(-c4ccccc4C(F)(F)F)nc4c3CCCCCC4)c2c1` [II-121, (5,7-Difluoro-1H-indazol-3-yl)-[2-(2-trifluoromethyl-phenyl)-5,6,7,8,9,10-hexahydro-cyclooctapyrimidin-4-yl]-amine] cannot be ordered by Ki: < 100 nM for the first, < 100 nM for the second.

First: O=c1cc2[nH]nc(Nc3nc(-c4ccccc4)nc4ccccc34)c2nn1-c1ccc(Cl)cc1Cl [III-137, [5-(2,4-Dichloro-phenyl)-6-oxo-5,6-dihydro-1H-pyrazolo[4,3-c]pyridazin-3-yl]-(2-phenyl-quinazolin-4-yl)-amine]
Second: COc1cccc(-n2nc3c(Nc4nc(-c5ccccc5)nc5ccccc45)n[nH]c3cc2=O)c1 [III-134, [5-(3-Methoxy-phenyl)-6-oxo-5,6-dihydro-1H-pyrazolo[4,3-c]pyridazin-3-yl]-(2-phenyl-quinazolin-4-yl)-amine]
The Ki of the first is higher: 1000 to 20000 nM for the first, 100 to 1000 nM for the second.

First: Fc1ccc2[nH]nc(Nc3nc(-c4ccccc4)nc4c3CNCC4)c2c1 [IV-36, (5-Fluoro-1H-indazol-3-yl)-(2-phenyl-5,6,7,8-tetrahydro-pyrido[4,3-d]pyrimidin-4-yl)-amine]
Second: Clc1ccccc1-c1nc2c(c(Nc3n[nH]c4ccccc34)n1)CCC2 [II-116, [2-(2-Chloro-phenyl)-6,7-dihydro-5H-cyclopentapyrimidin-4-yl]-(1H-indazol-3-yl)-amine]
The Ki of the first is higher: 100 to 1000 nM for the first, < 100 nM for the second. The second binds more tightly here.

For `COC(=O)c1cc(Nc2nc(N3CCCCC3)nc3ccccc23)[nH]n1` [III-122, (5-Methoxycarbonyl-2H-pyrazol-3-yl)-[2-(piperidine-1-yl)-quinazolin-4-yl]-amine], the Ki was 100 to 1000 nM.
